# Results taken from ChEMBL document CHEMBL1201862, “PubChem BioAssay data set” (2004).
# Active and inactive are the calls of the source.
# How the values were obtained:
# [1] = target: T1, Coagulation factor XII (Homo sapiens, UniProt P00748); type: functional;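 further: activated factor XIIa alpha cleaving a fluorogenic AMC peptide substrate; inhibitor potency from loss of enzyme activity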
# T1 sequence (P00748 whole entry): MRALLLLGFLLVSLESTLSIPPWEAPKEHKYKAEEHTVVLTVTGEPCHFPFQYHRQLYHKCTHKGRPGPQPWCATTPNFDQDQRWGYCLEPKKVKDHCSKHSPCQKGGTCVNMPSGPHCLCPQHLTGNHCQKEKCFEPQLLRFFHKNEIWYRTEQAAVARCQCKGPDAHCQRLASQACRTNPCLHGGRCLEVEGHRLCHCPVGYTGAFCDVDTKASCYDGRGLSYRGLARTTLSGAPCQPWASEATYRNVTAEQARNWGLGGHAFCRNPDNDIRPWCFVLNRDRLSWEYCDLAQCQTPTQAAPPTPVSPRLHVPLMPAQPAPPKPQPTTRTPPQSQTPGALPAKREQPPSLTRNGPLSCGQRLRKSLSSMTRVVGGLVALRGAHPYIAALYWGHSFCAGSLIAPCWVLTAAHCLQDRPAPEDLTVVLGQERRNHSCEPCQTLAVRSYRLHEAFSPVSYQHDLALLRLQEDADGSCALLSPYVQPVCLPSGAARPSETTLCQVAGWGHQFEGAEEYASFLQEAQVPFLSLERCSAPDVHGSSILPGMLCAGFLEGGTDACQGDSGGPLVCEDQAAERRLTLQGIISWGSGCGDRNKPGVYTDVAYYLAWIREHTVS
# [2] = target: T2, Cytochrome P450 2C9 (Homo sapiens, UniProt P11712)
# [3] = target: Cytochrome P450 2C19 (Homo sapiens, UniProt P33261); experiment: Cytochrome panel assay with activity outcomes. Panel member name: p450-cyp2c19 Compounds with AC50 equal or less than 10 uM are considered active; type: functional; details: read-out: AC50
# [4] = target: T2, Cytochrome P450 2C9; remark: listed apart in the source
# [5] = target: Cytochrome P450 2D6 (Homo sapiens, UniProt P10635);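 further: CYP2D6 member of a cytochrome P450 panel assay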
# [6] = target: Cytochrome P450 3A4 (Homo sapiens, UniProt P08684);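 further: CYP3A4 tested as one member of a cytochrome P450 panel screen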
# [7] = target: T3, Replicative DNA helicase DnaB (Mycobacterium tuberculosis, UniProt P9WMR3); experiment: DnaB intein splicing inhibitors, dose response, biochemical, cell-free fluorescence (AID 449749); type: functional
# T3 sequence (P9WMR3 whole entry): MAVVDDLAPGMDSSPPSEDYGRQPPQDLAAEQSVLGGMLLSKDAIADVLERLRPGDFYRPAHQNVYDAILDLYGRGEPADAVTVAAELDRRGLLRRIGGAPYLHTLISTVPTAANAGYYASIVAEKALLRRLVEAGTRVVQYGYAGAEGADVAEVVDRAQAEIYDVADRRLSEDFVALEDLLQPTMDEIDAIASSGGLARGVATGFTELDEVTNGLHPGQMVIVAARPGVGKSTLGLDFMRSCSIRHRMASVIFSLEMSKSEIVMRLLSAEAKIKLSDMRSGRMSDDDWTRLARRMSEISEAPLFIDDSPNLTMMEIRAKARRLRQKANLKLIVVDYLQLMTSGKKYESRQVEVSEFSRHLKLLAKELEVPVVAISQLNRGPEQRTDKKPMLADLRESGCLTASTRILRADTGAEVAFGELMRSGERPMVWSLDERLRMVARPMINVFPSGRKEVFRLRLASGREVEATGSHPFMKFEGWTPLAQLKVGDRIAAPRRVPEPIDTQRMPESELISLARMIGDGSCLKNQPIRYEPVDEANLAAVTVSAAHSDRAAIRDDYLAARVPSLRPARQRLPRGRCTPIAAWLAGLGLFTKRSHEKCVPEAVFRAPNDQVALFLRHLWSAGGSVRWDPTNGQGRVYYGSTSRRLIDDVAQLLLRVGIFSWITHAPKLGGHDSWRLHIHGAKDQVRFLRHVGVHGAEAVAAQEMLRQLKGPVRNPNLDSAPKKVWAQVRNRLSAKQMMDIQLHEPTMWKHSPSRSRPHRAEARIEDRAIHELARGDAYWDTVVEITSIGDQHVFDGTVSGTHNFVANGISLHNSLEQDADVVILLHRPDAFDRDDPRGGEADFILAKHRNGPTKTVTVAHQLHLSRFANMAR
# [8] = target: T4, Protein RecA (Mycobacterium tuberculosis, UniProt P9WHJ3); experiment: Fluorescence Cell-Free Homogeneous Dose Retest to Identify Inhibitors of RecA-Intein Splicing Activity. [Related pubchem assays (depositor defined):AID2097, AID2223, AID489010, AID492950]; type: functional
# T4 sequence (P9WHJ3 whole entry): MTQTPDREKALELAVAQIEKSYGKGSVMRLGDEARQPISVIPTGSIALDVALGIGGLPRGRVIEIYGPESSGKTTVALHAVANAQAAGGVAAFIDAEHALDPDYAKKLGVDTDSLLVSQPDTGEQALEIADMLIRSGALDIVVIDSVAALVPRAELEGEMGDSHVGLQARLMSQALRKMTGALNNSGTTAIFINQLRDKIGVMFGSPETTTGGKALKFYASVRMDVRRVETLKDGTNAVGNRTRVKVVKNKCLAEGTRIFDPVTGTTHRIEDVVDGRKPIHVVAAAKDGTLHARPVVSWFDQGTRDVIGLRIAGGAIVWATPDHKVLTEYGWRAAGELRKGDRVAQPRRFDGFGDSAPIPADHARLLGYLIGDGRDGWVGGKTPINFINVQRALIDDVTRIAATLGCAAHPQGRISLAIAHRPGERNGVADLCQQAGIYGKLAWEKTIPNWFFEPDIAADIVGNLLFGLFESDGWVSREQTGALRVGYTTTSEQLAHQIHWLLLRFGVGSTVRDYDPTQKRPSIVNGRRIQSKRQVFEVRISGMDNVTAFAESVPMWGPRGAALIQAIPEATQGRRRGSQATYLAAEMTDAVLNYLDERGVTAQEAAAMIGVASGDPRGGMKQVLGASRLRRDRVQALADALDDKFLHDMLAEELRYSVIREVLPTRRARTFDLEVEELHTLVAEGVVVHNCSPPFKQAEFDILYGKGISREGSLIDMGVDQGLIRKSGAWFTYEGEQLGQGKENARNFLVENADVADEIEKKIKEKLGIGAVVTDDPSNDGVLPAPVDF
# [9] = target: Genome polyprotein (dengue virus type 2, UniProt P29990); experiment: flavivirus cap methylation enzyme inhibition – biochemical, confirmation dose response, primary screen (AID 588689); type: functional
# [10] = HIV-1 AD8 envelope cell-cell fusion blockers – cherry-pick, dose response (AID 652062); type: functional, cell-based;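 further: luciferase signal from cell-cell fusion driven by HIV-1 clade B AD8 Env; potency is for inhibitors of fusion seen as a drop in luminescence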
# [11] = blockers of HIV-1 ZM109 envelope-driven cell-cell fusion – HeLa effector, CEM target cells, luciferase, cherry-pick, dose response (AID 652058); type: functional, cell-based;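 further: luciferase signal from HIV-1 Env mediated cell-cell fusion of effector and target cells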
# [12] = off-target signal loss in HeLa-CEM21 co-culture – HeLa F-luc CTL cells, cherry-picked, counter-screen for HIV-1 Env fusion inhibitor project, dose response (AID 652040); type: functional, cell-based;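 further: potency for signal decrease marking cytotoxic or nonspecific inhibition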
# [13] = blockers of HIV-1 envelope-mediated cell-cell fusion – cherry-pick, dose response (AID 652057); type: functional, cell-based
# [14] = target: T5, Microphthalmia-associated transcription factor (Homo sapiens, UniProt O75030); experiment: reducers of TRPM1 reporter luminescence, concentration series – cell-based, SK-MEL-5, cherry-picked, set 3, MITF inhibitor project, dose response (AID 493073); type: functional;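 further: SK-MEL-5 melanoma cells with luciferase driven by the MITF target TRPM1 promoter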
# T5 sequence (O75030 whole entry): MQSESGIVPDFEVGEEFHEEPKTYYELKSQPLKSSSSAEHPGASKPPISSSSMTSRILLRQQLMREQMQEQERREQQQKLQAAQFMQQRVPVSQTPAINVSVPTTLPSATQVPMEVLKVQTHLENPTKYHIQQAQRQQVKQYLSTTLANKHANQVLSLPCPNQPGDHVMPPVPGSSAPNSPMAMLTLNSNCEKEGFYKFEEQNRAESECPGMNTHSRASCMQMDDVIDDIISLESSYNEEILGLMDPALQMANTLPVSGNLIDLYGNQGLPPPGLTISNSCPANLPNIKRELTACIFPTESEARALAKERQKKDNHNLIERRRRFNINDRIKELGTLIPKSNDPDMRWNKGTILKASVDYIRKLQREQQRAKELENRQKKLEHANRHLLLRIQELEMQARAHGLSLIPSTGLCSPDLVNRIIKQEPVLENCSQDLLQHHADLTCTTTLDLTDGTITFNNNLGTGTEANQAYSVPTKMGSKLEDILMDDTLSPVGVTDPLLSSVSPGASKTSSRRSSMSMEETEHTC
# [15] = test system: Vero; experiment: cells; type: functional, cell-based; details: Chlorocebus sabaeus
# [16] = blockers of bursicon-stimulated LGR2 cAMP reporter – cell-based, HEK293, CRE-luciferase reporter, cherry pick, set 2, dose response (AID 743343); type: functional;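 further: transfected cells were stimulated with diluted bursicon conditioned medium after compound addition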
# [17] = blockade of melanocortin 4 receptor signaling – cell-based, plate reader, cherry pick, counter-screen for LGR2 antagonist project, dose response (AID 743444); type: functional;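 further: transfected HEK 293 cells stimulated with alpha-MSH peptide; potency of inhibitors of the alpha-MSH evoked signal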
# [18] = viability loss in HEK293 cells – cell-based, plate reader, cherry-picked samples, cytotoxicity control, dose response (AID 743446); type: functional
# [19] = alpha-synuclein stem-loop luciferase translation blockers – H4 neuroglioma cells, luminescence, confirmation (AID 1988); type: functional, cell-based
# [20] = Luminescence Cell-Based Dose Response HTS to Identify Inhibitors of 5'UTR Stem-Loop Driven Prion Protein mRNA Translation in H4 Neuroglioblastoma Cells. [Related pubchem assays: 1827 (Project Summary), 1813 (Primary HTS)]; type: functional
# [21] = luciferase reporter signal suppression in cells – H4 neuroglioma cells, luminescence, dose response (AID 1990); type: functional, cell-based
# [22] = target: Fatty acid synthase (Homo sapiens, UniProt P49327); experiment: inhibition of human FAS-TE enzyme activity – biochemical, kinetic fluorescence intensity, dose response (AID 624326); type: functional;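 further: rate of fluorescence rise from hydrolysis of a fluorogenic O-methyl fluorescein ester substrate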
# [23] = NIH3T3 cell viability loss – ATP luminescence, mouse fibroblasts, counter-screen, dose response (AID 2010); type: functional, cell-based;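 further: cells exposed to compound for about 90 hours before reading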
# [24] = Trypanosoma cruzi growth suppression in host cells – NIH3T3 host cells, beta-gal luminescence, confirmation (AID 2044); type: functional, cell-based;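 further: intracellular parasites grown in NIH/3T3 mouse fibroblasts as host cells; luminescent beta-galactosidase reporter signal from transgenic T. cruzi replicating inside host cells; inhibitors lower the luminescence signal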
# [25] = test system: INS1; experiment: INS-1E survival protection against cytokine death – cell-based, luminescence, retest, dose response (AID 449756); type: functional; details: Rattus norvegicus;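 further: cell death triggered by IL-1 beta plus TNF-alpha plus IFN-gamma mixture; protective hits raise ATP signal compared with cytokine alone wells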
# [26] = cells; type: functional
# Sequence of Cytochrome P450 2C19 (P33261 whole entry): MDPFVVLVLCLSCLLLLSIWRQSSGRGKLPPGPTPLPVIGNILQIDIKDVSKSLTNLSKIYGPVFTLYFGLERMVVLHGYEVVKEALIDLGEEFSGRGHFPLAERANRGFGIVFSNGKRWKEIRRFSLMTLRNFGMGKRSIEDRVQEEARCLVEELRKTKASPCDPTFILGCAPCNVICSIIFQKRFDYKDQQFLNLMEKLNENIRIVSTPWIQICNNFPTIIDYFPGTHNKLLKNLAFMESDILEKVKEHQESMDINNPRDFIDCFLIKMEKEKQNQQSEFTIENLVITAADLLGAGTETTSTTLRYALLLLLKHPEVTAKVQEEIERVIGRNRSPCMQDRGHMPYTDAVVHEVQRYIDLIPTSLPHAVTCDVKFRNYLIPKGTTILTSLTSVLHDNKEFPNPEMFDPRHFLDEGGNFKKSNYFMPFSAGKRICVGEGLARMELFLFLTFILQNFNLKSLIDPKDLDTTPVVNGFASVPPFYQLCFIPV
# Sequence of Genome polyprotein (P29990 2492-3391 limits assumed): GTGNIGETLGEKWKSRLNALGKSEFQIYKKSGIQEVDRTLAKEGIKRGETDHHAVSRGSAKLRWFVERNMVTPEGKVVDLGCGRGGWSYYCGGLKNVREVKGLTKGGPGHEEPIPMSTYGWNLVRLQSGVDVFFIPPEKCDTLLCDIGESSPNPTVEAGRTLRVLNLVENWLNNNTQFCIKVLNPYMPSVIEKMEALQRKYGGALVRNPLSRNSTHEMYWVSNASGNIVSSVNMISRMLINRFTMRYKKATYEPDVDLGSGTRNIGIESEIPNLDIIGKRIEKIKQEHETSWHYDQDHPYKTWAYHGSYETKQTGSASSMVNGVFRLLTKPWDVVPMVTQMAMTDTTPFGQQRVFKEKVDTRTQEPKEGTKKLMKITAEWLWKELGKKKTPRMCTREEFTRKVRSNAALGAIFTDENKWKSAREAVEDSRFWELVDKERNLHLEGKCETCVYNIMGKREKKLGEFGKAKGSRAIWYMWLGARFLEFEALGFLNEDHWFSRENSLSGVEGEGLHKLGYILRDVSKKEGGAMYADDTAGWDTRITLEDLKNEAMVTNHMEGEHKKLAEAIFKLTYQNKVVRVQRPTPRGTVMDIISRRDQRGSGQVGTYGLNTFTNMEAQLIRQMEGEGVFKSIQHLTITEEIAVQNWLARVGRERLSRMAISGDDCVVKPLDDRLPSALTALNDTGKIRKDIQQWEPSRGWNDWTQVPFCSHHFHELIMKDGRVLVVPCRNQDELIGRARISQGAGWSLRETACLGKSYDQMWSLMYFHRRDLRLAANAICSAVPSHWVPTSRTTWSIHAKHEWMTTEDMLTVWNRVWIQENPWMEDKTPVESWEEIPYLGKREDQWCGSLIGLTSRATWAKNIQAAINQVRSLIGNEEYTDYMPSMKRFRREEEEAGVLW
# T2 sequence (P11712 whole entry): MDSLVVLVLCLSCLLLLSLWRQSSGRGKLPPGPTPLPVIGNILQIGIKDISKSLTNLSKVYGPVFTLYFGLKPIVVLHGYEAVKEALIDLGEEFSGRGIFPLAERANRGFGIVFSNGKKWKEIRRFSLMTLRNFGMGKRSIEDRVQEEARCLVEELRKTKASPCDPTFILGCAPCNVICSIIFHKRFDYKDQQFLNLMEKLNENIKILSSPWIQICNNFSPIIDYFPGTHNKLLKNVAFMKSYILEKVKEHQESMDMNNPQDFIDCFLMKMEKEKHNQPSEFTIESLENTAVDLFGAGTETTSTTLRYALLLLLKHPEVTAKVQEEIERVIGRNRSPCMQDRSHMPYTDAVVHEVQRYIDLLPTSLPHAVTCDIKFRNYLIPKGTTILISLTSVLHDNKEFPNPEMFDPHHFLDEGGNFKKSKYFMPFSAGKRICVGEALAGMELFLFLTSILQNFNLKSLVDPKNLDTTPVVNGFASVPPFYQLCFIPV
# Sequence of Fatty acid synthase (P49327 whole entry): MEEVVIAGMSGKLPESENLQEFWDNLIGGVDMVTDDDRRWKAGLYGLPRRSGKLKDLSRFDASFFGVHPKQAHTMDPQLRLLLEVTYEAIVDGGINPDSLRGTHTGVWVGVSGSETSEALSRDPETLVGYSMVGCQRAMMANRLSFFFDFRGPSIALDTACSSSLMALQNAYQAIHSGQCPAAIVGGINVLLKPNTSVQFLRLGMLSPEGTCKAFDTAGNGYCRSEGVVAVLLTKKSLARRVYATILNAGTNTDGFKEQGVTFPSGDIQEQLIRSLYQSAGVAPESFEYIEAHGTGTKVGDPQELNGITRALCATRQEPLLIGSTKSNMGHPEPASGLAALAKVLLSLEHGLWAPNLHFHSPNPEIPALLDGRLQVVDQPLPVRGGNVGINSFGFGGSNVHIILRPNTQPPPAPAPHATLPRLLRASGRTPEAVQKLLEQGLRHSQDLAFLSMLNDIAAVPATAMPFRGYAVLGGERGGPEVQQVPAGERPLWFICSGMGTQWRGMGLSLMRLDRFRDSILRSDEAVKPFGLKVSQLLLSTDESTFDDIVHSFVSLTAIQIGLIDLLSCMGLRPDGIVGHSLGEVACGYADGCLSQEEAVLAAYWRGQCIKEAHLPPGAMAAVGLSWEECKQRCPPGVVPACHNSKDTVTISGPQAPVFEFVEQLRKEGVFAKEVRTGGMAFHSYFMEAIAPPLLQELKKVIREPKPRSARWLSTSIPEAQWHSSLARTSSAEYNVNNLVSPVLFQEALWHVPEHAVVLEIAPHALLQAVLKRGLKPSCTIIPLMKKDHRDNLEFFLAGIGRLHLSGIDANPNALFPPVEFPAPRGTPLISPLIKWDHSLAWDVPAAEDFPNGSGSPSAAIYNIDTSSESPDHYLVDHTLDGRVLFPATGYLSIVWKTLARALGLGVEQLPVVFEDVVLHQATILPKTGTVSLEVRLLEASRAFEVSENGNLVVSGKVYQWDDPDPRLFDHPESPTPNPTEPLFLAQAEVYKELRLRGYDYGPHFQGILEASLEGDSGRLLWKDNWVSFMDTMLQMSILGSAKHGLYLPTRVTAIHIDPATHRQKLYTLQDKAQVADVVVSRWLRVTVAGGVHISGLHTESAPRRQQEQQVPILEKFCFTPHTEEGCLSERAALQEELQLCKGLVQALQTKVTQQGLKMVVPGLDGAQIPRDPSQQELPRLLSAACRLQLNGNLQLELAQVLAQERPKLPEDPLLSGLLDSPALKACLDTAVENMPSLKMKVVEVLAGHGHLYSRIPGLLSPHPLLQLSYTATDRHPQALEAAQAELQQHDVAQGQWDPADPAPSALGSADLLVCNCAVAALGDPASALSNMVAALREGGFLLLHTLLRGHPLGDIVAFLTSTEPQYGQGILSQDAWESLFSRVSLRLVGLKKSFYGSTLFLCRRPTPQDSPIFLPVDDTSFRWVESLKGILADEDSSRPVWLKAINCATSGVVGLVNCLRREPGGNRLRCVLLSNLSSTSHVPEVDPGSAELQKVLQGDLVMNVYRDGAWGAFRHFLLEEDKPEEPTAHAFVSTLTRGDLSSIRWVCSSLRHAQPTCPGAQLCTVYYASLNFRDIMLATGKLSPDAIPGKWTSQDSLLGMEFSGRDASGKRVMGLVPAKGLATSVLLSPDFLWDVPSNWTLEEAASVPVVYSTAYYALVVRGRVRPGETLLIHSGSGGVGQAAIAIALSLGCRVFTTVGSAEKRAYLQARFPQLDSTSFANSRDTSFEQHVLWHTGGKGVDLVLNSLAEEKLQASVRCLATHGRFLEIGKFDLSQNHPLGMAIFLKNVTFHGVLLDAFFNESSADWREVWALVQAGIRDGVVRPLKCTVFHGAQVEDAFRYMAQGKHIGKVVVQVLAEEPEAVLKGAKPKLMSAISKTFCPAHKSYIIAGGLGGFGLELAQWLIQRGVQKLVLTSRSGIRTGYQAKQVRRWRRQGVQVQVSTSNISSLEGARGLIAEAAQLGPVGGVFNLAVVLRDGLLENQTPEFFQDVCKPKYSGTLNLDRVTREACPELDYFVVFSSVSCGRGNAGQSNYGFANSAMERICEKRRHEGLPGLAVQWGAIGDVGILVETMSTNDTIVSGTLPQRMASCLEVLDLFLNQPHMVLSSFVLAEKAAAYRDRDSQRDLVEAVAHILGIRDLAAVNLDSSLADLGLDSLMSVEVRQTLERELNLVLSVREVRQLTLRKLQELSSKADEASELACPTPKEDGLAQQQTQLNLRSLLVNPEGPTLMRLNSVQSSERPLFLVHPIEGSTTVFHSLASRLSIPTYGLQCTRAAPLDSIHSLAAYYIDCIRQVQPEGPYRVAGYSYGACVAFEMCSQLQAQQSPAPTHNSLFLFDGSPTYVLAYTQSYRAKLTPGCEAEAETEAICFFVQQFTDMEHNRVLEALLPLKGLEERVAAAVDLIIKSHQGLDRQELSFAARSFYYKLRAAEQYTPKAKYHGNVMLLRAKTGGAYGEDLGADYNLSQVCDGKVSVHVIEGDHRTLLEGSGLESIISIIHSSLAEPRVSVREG
# Sequence of Cytochrome P450 2D6 (P10635 whole entry): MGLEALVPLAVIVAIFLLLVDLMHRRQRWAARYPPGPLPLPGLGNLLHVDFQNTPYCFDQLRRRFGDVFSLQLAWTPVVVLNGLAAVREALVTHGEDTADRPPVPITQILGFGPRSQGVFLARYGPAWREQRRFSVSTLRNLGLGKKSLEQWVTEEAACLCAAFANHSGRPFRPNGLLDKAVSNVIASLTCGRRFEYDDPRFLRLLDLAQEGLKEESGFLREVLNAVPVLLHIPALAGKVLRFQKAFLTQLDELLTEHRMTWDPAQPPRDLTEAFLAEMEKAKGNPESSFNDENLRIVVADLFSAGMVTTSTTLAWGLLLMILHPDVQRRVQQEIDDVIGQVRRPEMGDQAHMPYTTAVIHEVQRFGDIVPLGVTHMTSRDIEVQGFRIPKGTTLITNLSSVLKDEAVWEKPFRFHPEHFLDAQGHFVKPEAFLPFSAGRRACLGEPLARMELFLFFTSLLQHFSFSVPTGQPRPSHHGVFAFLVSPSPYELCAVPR
structure (smiles),measurement,setting,value
CC(C)OC(=O)c1cccc(NC(=O)CSc2nnc(N)s2)c1,IC50,[1],> 50 µM (inactive)
CCOc1cc2c(C)cc(=O)oc2cc1Cl,AC50,[2],inconclusive
same,AC50,[3],14.1 µM (inconclusive)
CCCC(=O)/N=C1\SC2CS(=O)(=O)CC2N1c1ccc(CC)cc1 (configuration not stated),AC50,[4],10 µM (inconclusive)
same,AC50,[5],15.8 µM (inconclusive)
same,AC50,[6],12.6 µM (inconclusive)
same,IC50,[1],> 50 µM (inactive)
C#CCOc1ccc(/C=C2/C(=O)N(c3cccc(C(=O)O)c3)N=C2C)cc1OC,AC50,[7],2.41 µM (active)
same,EC50,[8],2.01 µM (active)
same,IC50,[9],8.42 µM (active)
CCOC(=O)c1c(CSc2ccsc2)n(C)c2cc(Br)c(O)c(CN(C)C)c12,AC50,[10],4.04 µM (active)
same,AC50,[11],2.34 µM (active)
same,AC50,[12],2.45 µM (active)
same,AC50,[13],1.3 µM (active)
O=[N+]([O-])c1cccc(/C=C/c2nc(O)nc(O)c2[N+](=O)[O-])c1,IC50,[9],72.8 µM (active)
CCCn1cc(CN2CCCC(C(=O)c3cccc(OC)c3)C2)c(C)n1 (configuration not stated),IC50,[1],> 50 µM (inactive)
O=C(CCl)N(Cc1cc(O)nc2ccccc12)c1ccccc1,AC50,[7],5.06 µM (active)
same,EC50,[8],2.38 µM (active)
same,AC50,[14],5.42 µM (active)
OC1(c2cccs2)C[N+](c2ccc(Br)cc2)=C2SCCCN21 (configuration not stated),IC50,[15],14.9 µM (active)
C=CCSC[C@@H]1Nc2cc(Cl)c(S(N)(=O)=O)cc2S(=O)(=O)N1,AC50,[2],inconclusive
COc1ccc(CN(C)C(=S)Nc2ccc(Cl)cc2)cc1,IC50,[1],> 50 µM (inactive)
Cc1cccc(-n2cccc2)c1C#N,AC50,[2],inconclusive
Cc1nn(CC(=O)N2CCc3ccccc3C2)c(C)c1[N+](=O)[O-],IC50,[1],> 50 µM (inactive)
Clc1ccc(OCc2nc(-c3ccccn3)no2)c(Br)c1,AC50,[16],6.73 µM (active)
same,AC50,[17],10.6 µM (active)
same,AC50,[18],27.6 µM (active)
COc1ccc(OC)c(N2C(=O)C(Cl)=C(N3CCOCC3)C2=O)c1,AC50,[7],145 µM (active)
same,EC50,[8],26.3 µM (active)
same,IC50,[9],18.1 µM (active)
Nc1[nH]nc2nc(NCc3ccccc3)c3c(c12)CCN(Cc1ccccc1)C3,EC50,[19],> 120 µM (not active)
same,EC50,[20],16.3 µM (active)
same,IC50,[15],> 25 µM (active)
same,EC50,[21],20.1 µM (active)
CC(C)OP(=O)(Nc1cccc2ccccc12)OC(C)C,AC50,[10],7.86 µM (active)
same,AC50,[11],5.55 µM (active)
same,AC50,[12],5.98 µM (active)
same,AC50,[13],4.78 µM (active)
Cc1ccccc1-c1nc(N2CCOCC2)c2ccccc2n1,AC50,[2],inconclusive
same,AC50,[3],39.8 µM (inconclusive)
NC(=NOC(=O)CCCc1ccccc1)c1cccc([N+](=O)[O-])c1,IC50,[22],11.6 µM (active)
COc1cc(NC(=O)c2ccc([N+](=O)[O-])o2)ccc1NC(=O)c1cccs1,EC50,[23],> 60 µM (not active)
same,EC50,[24],0.548 µM (active)
same,AC50,[14],8.46 µM (active)
same,AC50,[25],11.2 µM (active)
CCC(C)n1nnc2c(=O)oc3ccccc3c21 (configuration not stated),AC50,[2],inconclusive
same,IC50,[26],5.77 µM (active)
same,AC50,[3],8.91 µM (inconclusive)
CCC(C)[C@H](NC(=O)Nc1ccc(C(C)=O)cc1)C(=O)OC (some centres not stated),IC50,[1],> 50 µM (inactive)
CS(=O)(=O)N(Cc1ccccc1)c1ccc(C(=O)NC2CCCCC2O)cc1 (configuration not stated),IC50,[1],> 50 µM (inactive)
Cc1cccc2cc(=O)[nH]c(C)c12,AC50,[2],inconclusive
COc1ccc(C(=O)NC2CCCc3c2cnn3-c2cccc(C)c2C)o1 (configuration not stated),IC50,[15],> 25 µM (active)
CCN(CC)c1ccc(/C=N/NS(=O)(=O)c2cccc([N+](=O)[O-])c2)cc1,IC50,[1],> 50 µM (inactive)
CON(C)c1nc(OCCNC(=O)OCc2ccc(Cl)cc2C)nc(N(C)C)n1,AC50,[10],0.357 µM (active)
same,AC50,[11],2.22 µM (active)
same,AC50,[12],2.32 µM (active)
same,AC50,[13],1.29 µM (active)
